Data taken from US11596622B2, “Mazindol treatment for heroin dependence and substance use disorder” (NLS Pharmaceutics AG, priority 2017, dated 2023).

Legend:
[1] = Heroin intoxication procedure after Jiang et al., mortality; type: in vivo; conditions: two subcutaneous injections/day of heroin at increasing doses (3 to 30 mg/kg)
Protocol: In the protocol planned before, it was planned to follow the method used by Jiang et al. Mice had to receive two subcutaneous injections/day of heroin at increasing doses (3 to 30 mg/kg) for 9 consecutive days and a single injection on the 10th day. […] It is likely that the discrepancy of toxicity between our experiments and the study of Jiang et al. partly resulted from difference in purity of heroin. Therefore, it was necessary to develop a method allowing to observe clear withdrawal symptoms and an acceptable mortality rate. This method is presented below. For information, 178 rats, including those used for the development of the method, have been used for this study of which 54 have been included in the results presented here.

[2] = test system: Sprague-Dawley rats; test: Naloxone precipitated withdrawal syndrome of heroin; type: in vivo
Protocol: The abrupt cessation of chronic opiate use results in a well characterized withdrawal syndrome with symptoms that include pain sensitivity, dysphoria, irritability, restlessness, insomnia, diarrhea and hyperventilation. In the present model, the naloxone-precipitated withdrawal syndrome is measured in rodents. Animals are chronically treated with a drug, e.g. morphine or heroin. Opiate withdrawal syndrome is elicited by an acute injection of the opiate antagonist Naloxone.
The effect of mazindol on heroin withdrawal syndrome elicited by naloxone was examined in Sprague-Dawley rats using a method similar to the one used by Jiang et al. (10),
Animals were subdivided into two groups. One group received heroin two i.p. injections/day for 12 consecutive days and a single injection on the 13th day (total: 25 injections) as exposed in Table 3 group received saline instead of heroin following the same protocol.
On day 13, animals received treatments and were tested according to the following time schedule: • T=0: i.p. injection of heroin (15 mg/kg) or vehicle. • T=2.5 h: animals individually placed in a transparent Plexiglas observation boxes (40×40×40 cm). • T=3.5 h: i.p. injection of treatment (see below). • T=4 h: i.p. injection of naloxone (5 mg/kg), start of test: observation of withdrawal symptoms as indicated in Table 4. • T=5 h: end of test, animals placed back into their home cages.
Animals received the following treatments at T 3.5 h (i.e. 30 min before injection of naloxone and observation of symptoms): • 1) Animals treated with saline during the intoxication period (days 1-12) and at T0 on day 13: • Saline group (N=8): saline (0.9% NaCl). • 2) Animals treated with […] during the intoxication period (days 1-12) and at T0 on day 13: • Hero group (N=14): saline (0.9% NaCl). • Amph 1 group (N=4): D-amphetamine (1 mg/kg). • Maz 0.125 group (N=5): mazindol (0.125 mg/kg). • Maz 0.25 group (N=6): mazindol (0.25 mg/kg). • Maz 0.5 group (N=6): mazindol (0.5 mg/kg). • Maz 1 group (N=6): mazindol (1 mg/kg). • Maz 2 group (N=5): mazindol (2 mg/kg).
A weighting factor was ascribed for each sign from which a score was calculated.
Examples: • Body weight before naloxone injection=241 g; after naloxone injection=236 g: • Weight loss score=2=100×(241−236)/241 • Number of escape attempts=8: • Score for escape attempts=2 • Profuse salivation present: • Score for profuse salivation
A global withdrawal score was then calculated: • Global score=the sum of the scores

[3] = test system: C57BL/6J mice; test: Conditioned place preference induced by the drug itself; type: in vivo; conditions: for Distance travelled in the drug-paired compartment / Distance travelled in the two compartments (Drug + Vehicle) / Distance travelled in the vehicle-paired compartment / Distance travelled, drug-paired minus vehicle-paired compartment / Time spent in the drug-paired compartment / Time spent in the vehicle-paired compartment / Time spent, drug-paired minus vehicle-paired compartment: vehicle before preference session, day 12, mean
Excerpt: Conditioned place preference (CPP) is a widely used procedure for studying the potential addictive effect of drugs. CPP is based upon the tendency of rodents to approach a stimulus that has previously been paired with an incentive state induced by a drug. A drug that induces a CPP may be suspected to present reinforcing effects that could lead to addiction. Numerous addictive drugs, such as opiate agonists or stimulants induce a CPP and a behavioral sensitization.
The effect of mazindol on place preference was examined in C57BL/6J mice using a method similar to the one used by Schlussman et al. (9).
The second experiment consisted in determining the optimal dose of heroin which induces the most significant CPP. For this purpose, the CPP induced by heroin at 1.25, 2.5 and 5 mg/kg was examined.
(§1) Following the habituation session (on day 1), animals (N=72) were pseudo-randomly assigned to two groups, a Control group (N=12) and a Heroin group (N=60), in a way that there was no significant difference between the two groups for the total distance travelled in the apparatus and for the percentage of time spent and the percentage distance travelled in the grey compartment and in the striped compartment.
Animals received the following treatments immediately before drug sessions: • Control group: vehicle • Heroin group: heroin (1.25 mg/kg)
as §1, with “three” for “two”, “(N=12),” for “(N=12) and”, “(N=48) and a Mazindol group (N=12),” for “(N=60),”
Animals received the following treatments before drug sessions: • Control group: vehicle, i.p. immediately before session. • Heroin group: heroin (1.25 mg/kg), i.p. immediately before session. • MAZ 2 group: mazindol (2 mg/kg), i.p. 60 min before session.
Animals received the following treatments before preference session: • Control group: vehicle of mazindol, i.p. 60 min before testing. • Hero group: vehicle of mazindol, i.p. 60 min before testing. • Hero-Mz 1 group: mazindol (1 mg/kg), i.p. 60 min before testing. • Hero-Mz 2 group: mazindol (2 mg/kg), i.p. 60 min before testing. • Hero-A 1 group: D-amphetamine (1 mg/kg), i.p. 30 min before testing. • MAZ 2 group: vehicle of mazindol, i.p. 60 min before testing.

[4] = target: T1, k (KOP) (Rattus norvegicus, UniProt P34975); test: Radioligand binding, κ opioid receptor (Eurofins CEREP)
T1 construct: Eurofins CEREP
Excerpt: (§2) Table A discloses mazindol and Met tested at […] and the compound binding calculated as a percent inhibition of the binding of a radioactively labeled ligand specific for each target (Eurofins CEREP, France).
(§3) An inhibition or stimulation of more than 50% is considered a significant effect of the test compounds. Fifty percent is a common cut-off for further investigation (i.e. determination of IC50 or EC50 values from concentration-response curves). Tables B and C display the binding profiles for Mazindol and Met.
(§4) The results are expressed as a percent of control specific binding obtained in the presence of the test compounds:
(§5) [formula] and as a percent inhibition of control specific binding obtained in the presence of the test compounds: […]

[5] = target: T2, Norepinephrine transporter (h) (Homo sapiens, UniProt P23975); test: Radioligand binding, norepinephrine transporter (Eurofins CEREP); conditions: 1.0 × 10^−05 M; antagonist radioligand
T2 construct: Eurofins CEREP
Excerpt: as §2, §3, §4, §5

[6] = target: T3, Dopamine transporter(h) (Homo sapiens, UniProt Q01959); test: Radioligand binding, dopamine transporter (Eurofins CEREP); conditions: 1.0 × 10^−05 M; antagonist radioligand
T3 construct: Eurofins CEREP
Excerpt: as §2
(§6) An inhibition or stimulation of more than 50% is considered a significant effect of the test compounds. Fifty percent is a common cut-off for further investigation (i.e. determination of IC50 or EC50 values from concentration-response curves).
as §4, §5

[7] = target: T4, H1(h) (Homo sapiens, UniProt P35367); test: Radioligand binding, H1 (Eurofins CEREP); conditions: 1.0 × 10^−05 M; antagonist radioligand
T4 construct: Eurofins CEREP
Excerpt: as §2, §3, §4, §5

[8] = target: T5, 5-HT1A(h) (Homo sapiens, UniProt P08908); test: Radioligand binding, 5-HT1A (Eurofins CEREP); conditions: 1.0 × 10^−05 M; agonist radioligand
T5 construct: Eurofins CEREP
T5 sequence (P08908 1-422): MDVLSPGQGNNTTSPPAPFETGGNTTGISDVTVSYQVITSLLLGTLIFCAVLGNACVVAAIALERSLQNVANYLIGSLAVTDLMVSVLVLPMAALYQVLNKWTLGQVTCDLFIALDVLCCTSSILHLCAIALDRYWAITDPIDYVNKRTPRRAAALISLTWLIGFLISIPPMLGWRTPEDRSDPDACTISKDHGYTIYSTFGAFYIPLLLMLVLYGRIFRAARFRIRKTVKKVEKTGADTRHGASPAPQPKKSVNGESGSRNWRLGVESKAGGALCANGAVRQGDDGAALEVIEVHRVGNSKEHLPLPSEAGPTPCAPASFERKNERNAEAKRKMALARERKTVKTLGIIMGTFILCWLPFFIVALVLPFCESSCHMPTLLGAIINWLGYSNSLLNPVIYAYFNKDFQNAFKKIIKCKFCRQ
Excerpt: as §2, §6, §4, §5

[9] = target: T6, μ (MOP) (h) (Homo sapiens, UniProt P35372); test: Radioligand binding, μ opioid receptor (Eurofins CEREP)
T6 construct: Eurofins CEREP
Excerpt: as §2, §3, §4, §5

[10] = target: T7, 5-HT transporter(h) (Homo sapiens, UniProt P31645); test: Radioligand binding, 5-HT transporter (Eurofins CEREP); conditions: 1.0 × 10^−05 M; antagonist radioligand
T7 construct: Eurofins CEREP
Excerpt: as §2, §6, §4, §5

[11] = target: T8, M1(h) (Homo sapiens, UniProt P11229); test: Radioligand binding, M1 (Eurofins CEREP); conditions: 1.0 × 10^−05 M; antagonist radioligand
T8 construct: Eurofins CEREP
T8 sequence (P11229 1-460): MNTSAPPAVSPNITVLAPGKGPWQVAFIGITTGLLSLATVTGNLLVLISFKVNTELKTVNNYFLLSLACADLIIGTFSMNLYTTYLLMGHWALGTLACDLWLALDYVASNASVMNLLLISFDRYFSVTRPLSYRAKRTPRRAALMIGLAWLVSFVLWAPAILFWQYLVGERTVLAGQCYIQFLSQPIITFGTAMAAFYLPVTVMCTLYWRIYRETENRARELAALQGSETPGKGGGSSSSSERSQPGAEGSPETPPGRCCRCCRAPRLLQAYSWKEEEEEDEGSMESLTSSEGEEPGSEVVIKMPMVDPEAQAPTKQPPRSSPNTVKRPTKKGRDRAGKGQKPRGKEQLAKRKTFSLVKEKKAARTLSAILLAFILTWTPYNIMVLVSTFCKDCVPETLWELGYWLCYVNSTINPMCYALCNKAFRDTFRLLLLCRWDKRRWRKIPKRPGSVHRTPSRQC
Excerpt: as §2, §3, §4, §5

[12] = Hero n = 14: heroin i.p. days 1-13 (2-15 mg/kg), saline 30 min before naloxone 5 mg/kg, mean
[13] = heroin-treated vs. saline rats, naloxone 5 mg/kg
[14] = Hero group N = 12 (Table 6): heroin 1.25 mg/kg i.p. before drug sessions
[15] = Hero group N = 24 (Table 5): heroin 1.25 mg/kg i.p. before drug sessions
[16] = 1.0 × 10^−05 M, agonist radioligand

T1 sequence (P34975 whole entry): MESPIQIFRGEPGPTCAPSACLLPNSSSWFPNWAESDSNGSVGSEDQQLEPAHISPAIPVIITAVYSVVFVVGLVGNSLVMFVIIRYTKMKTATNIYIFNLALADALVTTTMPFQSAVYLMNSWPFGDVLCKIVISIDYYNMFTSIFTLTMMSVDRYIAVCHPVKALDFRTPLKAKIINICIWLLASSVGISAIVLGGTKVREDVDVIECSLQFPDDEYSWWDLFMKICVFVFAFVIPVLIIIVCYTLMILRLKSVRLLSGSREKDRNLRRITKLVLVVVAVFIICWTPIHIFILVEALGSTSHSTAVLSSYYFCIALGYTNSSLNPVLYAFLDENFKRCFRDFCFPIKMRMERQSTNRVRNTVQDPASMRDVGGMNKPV
T6 sequence (P35372 whole entry): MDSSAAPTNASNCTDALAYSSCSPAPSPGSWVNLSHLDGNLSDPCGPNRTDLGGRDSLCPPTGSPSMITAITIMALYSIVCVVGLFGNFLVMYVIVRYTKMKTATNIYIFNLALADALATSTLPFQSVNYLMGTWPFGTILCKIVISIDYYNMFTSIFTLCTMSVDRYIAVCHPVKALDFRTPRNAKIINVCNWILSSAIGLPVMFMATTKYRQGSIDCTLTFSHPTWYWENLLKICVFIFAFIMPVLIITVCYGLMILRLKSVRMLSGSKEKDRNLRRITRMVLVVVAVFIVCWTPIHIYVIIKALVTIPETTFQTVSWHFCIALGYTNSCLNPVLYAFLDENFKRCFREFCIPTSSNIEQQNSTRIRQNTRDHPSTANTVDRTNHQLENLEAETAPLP
T3 sequence (Q01959 whole entry): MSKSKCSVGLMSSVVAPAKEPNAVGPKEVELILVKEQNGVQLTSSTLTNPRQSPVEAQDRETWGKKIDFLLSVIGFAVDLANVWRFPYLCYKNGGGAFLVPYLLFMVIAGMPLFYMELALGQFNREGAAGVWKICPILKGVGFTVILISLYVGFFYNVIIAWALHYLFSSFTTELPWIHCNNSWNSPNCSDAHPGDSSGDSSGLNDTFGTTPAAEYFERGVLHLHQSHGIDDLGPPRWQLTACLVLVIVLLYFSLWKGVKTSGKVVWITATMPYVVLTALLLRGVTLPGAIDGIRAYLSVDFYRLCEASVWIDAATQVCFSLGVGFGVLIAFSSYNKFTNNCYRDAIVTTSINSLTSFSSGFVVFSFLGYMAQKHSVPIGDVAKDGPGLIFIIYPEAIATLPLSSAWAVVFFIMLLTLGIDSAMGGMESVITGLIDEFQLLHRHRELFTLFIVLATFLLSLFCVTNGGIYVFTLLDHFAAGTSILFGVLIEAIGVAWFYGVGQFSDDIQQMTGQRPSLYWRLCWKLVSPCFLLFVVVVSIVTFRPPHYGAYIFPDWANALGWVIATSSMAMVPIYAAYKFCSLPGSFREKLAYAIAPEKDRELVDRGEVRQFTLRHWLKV
T7 sequence (P31645 whole entry): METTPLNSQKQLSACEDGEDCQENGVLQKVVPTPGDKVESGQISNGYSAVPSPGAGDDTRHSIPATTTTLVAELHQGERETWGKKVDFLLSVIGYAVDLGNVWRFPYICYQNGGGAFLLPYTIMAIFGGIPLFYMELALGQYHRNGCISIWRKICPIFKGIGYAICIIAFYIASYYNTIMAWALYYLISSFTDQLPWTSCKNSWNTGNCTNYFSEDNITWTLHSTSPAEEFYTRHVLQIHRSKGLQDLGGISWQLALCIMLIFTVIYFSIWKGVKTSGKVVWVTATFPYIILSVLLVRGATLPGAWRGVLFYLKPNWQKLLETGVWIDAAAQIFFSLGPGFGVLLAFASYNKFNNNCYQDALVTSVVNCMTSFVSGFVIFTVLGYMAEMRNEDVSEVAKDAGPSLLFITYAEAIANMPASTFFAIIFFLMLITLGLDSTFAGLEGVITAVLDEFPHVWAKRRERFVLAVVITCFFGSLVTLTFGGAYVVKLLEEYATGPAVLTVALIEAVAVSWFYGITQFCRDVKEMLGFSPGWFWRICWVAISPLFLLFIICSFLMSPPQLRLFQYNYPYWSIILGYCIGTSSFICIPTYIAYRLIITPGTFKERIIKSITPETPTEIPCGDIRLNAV
T2 sequence (P23975 whole entry): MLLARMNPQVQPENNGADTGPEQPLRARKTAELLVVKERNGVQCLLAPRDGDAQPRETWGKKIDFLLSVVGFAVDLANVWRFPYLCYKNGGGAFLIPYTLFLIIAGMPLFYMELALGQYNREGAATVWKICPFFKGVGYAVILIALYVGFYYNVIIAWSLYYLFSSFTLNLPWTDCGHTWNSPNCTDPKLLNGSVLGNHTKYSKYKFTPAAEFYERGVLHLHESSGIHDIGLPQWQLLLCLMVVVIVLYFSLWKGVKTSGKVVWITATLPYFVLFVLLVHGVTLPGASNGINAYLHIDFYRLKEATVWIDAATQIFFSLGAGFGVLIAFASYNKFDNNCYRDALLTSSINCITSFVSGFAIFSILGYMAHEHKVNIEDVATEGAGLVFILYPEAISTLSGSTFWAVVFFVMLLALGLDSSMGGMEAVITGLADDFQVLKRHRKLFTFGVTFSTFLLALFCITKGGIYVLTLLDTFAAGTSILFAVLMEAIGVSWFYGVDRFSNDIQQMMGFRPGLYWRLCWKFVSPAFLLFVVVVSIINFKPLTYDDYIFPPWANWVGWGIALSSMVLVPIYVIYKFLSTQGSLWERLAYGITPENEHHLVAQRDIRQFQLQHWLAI
T4 sequence (P35367 whole entry): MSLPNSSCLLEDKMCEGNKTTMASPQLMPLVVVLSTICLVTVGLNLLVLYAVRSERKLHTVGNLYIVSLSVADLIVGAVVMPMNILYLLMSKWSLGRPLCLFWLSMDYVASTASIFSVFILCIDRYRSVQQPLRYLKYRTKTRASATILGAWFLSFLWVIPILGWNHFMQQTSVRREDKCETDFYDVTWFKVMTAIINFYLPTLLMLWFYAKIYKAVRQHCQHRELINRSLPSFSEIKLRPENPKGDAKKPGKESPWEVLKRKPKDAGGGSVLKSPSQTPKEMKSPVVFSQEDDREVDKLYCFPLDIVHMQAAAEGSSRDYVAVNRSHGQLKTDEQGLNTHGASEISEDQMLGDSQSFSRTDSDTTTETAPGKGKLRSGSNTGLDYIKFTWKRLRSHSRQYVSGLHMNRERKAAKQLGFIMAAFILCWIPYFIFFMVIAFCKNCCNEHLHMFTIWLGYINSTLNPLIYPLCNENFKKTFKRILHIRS

CC(=O)Oc1ccc2c3c1O[C@H]1[C@@H](OC(C)=O)C=C[C@H]4[C@@H](C2)N(C)CC[C@@]341 [Heroin]
mortality [1]: substantial mortality
Abdominal constrictions score (Abd C) [2, 12]: 4.1
Abnormal posture score (Ab P) [2, 12]: 0.2
Chromodacryorrhea score (Chr) [2, 12]: 1.1
Diarrhea score (Diarr) [2, 12]: 2.0
Erection or ejaculation score (Er Ej) [2, 12]: 0.0
Escape attempts score (Esc A) [2, 12]: 1.1
Facial fasciculation or teeth chattering score (F F T C) [2, 12]: 2.0
Global Score [2, 12]: 22.4
Irritability score (Irrit) [2, 12]: 0.0
Profuse salivation score (Pr Sal) [2, 12]: 5.5
Ptosis score (Ptos) [2, 12]: 0.1
Swallowing movements score (Sw M) [2, 12]: 0.9
Weight loss score (W Los) [2, 12]: 1.9
Wet dog shakes score (W D S) [2, 12]: 3.4
global score and scores for weight loss, escape attempts, wet dog shake, diarrhea, facial fasciculation or teeth chattering and profuse salivation [2, 13]: induced an increase
scores for abdominal constrictions and chromodacryorrhea [2, 13]: non-significantly increased
Distance travelled in the drug-paired compartment [3, 14]: 7919.1 cm
Distance travelled in the two compartments (Drug + Vehicle) [3, 14]: 13647.5 cm
Distance travelled in the vehicle-paired compartment [3, 14]: 5728.4 cm
Distance travelled, drug-paired minus vehicle-paired compartment [3, 14]: 2190.6 cm
Time spent in the drug-paired compartment [3, 14]: 1063.0 s
Time spent in the vehicle-paired compartment [3, 14]: 737.0 s
Time spent, drug-paired minus vehicle-paired compartment [3, 14]: 325.9 s
Distance travelled in the drug-paired compartment [3, 15]: 7943.6 cm
Distance travelled in the two compartments (Drug + Vehicle) [3, 15]: 13892.0 cm
Distance travelled in the vehicle-paired compartment [3, 15]: 5948.4 cm
Distance travelled, drug-paired minus vehicle-paired compartment [3, 15]: 1995.3 cm
Time spent in the drug-paired compartment [3, 15]: 1023.7 s
Time spent in the vehicle-paired compartment [3, 15]: 776.3 s
Time spent, drug-paired minus vehicle-paired compartment [3, 15]: 247.4 s
place preference induced by the drug ([3]; heroin 1.25 mg/kg before drug sessions): induced a place preference
total distance travelled in two compartments (FIG. 3) ([3]; heroin 1.25 mg/kg before drug sessions, preference session): No significant modification
CPP induced by heroin (second experiment) ([3]; heroin 1.25, 2.5 and 5 mg/kg): induced CPP at the three doses tested

NCCN1C(=O)c2ccccc2C1(O)c1ccc(Cl)cc1 (centres unmarked) [Mazindol Metabolite, 2-(2-Aminoethyl)-3-(p-chlorophenyl)-3-hydroxyphthalimidine]
affinity for κ-opioid receptors [4]: modest affinity
percent inhibition of the binding of a radioactively labeled ligand [4, 16]: 53.3%
percent inhibition of the binding of a radioactively labeled ligand [5]: 100.2%
percent inhibition of the binding of a radioactively labeled ligand [6]: 101%
percent inhibition of the binding of a radioactively labeled ligand [7]: 75.5%
percent inhibition of the binding of a radioactively labeled ligand [8]: 86.3%
percent inhibition of the binding of a radioactively labeled ligand [9, 16]: 87.9%
affinity for μ-opioid receptors ([9]; compared with amphetamines): higher affinity
percent inhibition of the binding of a radioactively labeled ligand [10]: 98.5%
percent inhibition of the binding of a radioactively labeled ligand [11]: 50.4%
